# Patent publication US20230287003A1, “BCL6 INHIBITORS” (Cancer Research Technology Limited, priority 2018, published 2023)
# Biological target: human BCL6 BTB domain (Trx-6×His-BCL6) / BCOR-AF633 peptide (Homo sapiens (Human), UniProt P41182)
# Assay: HTRF assay
# Assay type: binding
# Settings: 1 nM Trx-6×His-BCL6, 300 nM BCOR-AF633 peptide, 2 hours incubation
row,HTRF avg pIC50 (1 nM),SMILES
1,6.93,"C[C@@H]1CN(c2ncc(Cl)c(Nc3ccc4c(c3)c3c(c(=O)n4C)OCC[C@H](C4CC4)N3)n2)C[C@H](C)[C@H]1F [Example 12e, (R)-10-((5-chloro-2-((3S,4R,5R)-4-fluoro-3,5-dimethylpiperidin-1-yl)pyrimidin-4-yl)amino)-2-cyclopropyl-7-methyl-1,2,3,4-tetrahydro-[1,4]oxazepino[2,3-c]quinolin-6(7H)-one]"
2,6.84,"C[C@@H]1CN(c2ncc(Cl)c(Nc3ccc4c(c3)c3c(c(=O)n4C)SCC[C@H](C4CC4)N3)n2)C[C@H](C)C1(F)F [Example 12m, (R)-10-((5-chloro-2-((3S,5R)-4,4-difluoro-3,5-dimethylpiperidin-1-yl)pyrimidin-4-yl)amino)-2-cyclopropyl-7-methyl-1,2,3,4-tetrahydro-[1,4]thiazepino[2,3-c]quinolin-6(7H)-one]"
3,7.94,"Cn1c(=O)c2c(c3cc(Nc4nc(N5CCC(F)(F)CC5)ncc4Cl)ccc31)N[C@@H](C1CC1)C(F)(F)CO2 [Example 12n, (S)-10-((5-chloro-2-(4,4-difluoropiperidin-1-yl)pyrimidin-4-yl)amino)-2-cyclopropyl-3,3-difluoro-7-methyl-1,2,3,4-tetrahydro-[1,4]oxazepino[2,3-c]quinolin-6(7H)-one]"
4,7.74,"C[C@@H]1CN(c2ncc(Cl)c(Nc3ccc4c(c3)c3c(c(=O)n4C)OCC(F)(F)[C@H](C4CC4)N3)n2)C[C@H](C)C1(F)F [Example 12o, (S)-10-((5-chloro-2-((3S,5R)-4,4-difluoro-3,5-dimethylpiperidin-1-yl)pyrimidin-4-yl)amino)-2-cyclopropyl-3,3-difluoro-7-methyl-1,2,3,4-tetrahydro-[1,4]oxazepino[2,3-c]quinolin-6(7H)-one]"
5,8.47,"C[C@@H]1CN(c2ncc(Cl)c(Nc3ccc4c(c3)c3c(c(=O)n4C)OCC(F)(F)[C@H](C4CC4)N3)n2)CCO1 [Example 12s, (S)-10-((5-chloro-2-((R)-2-methylmorpholino)pyrimidin-4-yl)amino)-2-cyclopropyl-3,3-difluoro-7-methyl-1,2,3,4-tetrahydro-[1,4]oxazepino[2,3-c]quinolin-6(7H)-one]"
6,8.46,"C[C@H]1CN(c2ncc(Cl)c(Nc3ccc4c(c3)c3c(c(=O)n4C)OCC(F)(F)[C@H](C4CC4)N3)n2)CCO1 [Example 12t, (S)-10-((5-chloro-2-((S)-2-methylmorpholino)pyrimidin-4-yl)amino)-2-cyclopropyl-3,3-difluoro-7-methyl-1,2,3,4-tetrahydro-[1,4]oxazepino[2,3-c]quinolin-6(7H)-one]"
7,8.68,"Cn1c(=O)c2c(c3cc(Nc4nc(N5CCc6ncnc(O)c6C5)ncc4Cl)ccc31)N[C@@H](C1CC1)C(F)(F)CO2 [Example 13a, (S)-10-((5-chloro-2-(4-hydroxy-7,8-dihydropyrido[4,3-d]pyrimidin-6(5H)-yl)pyrimidin-4-yl)amino)-2-cyclopropyl-3,3-difluoro-7-methyl-1,2,3,4-tetrahydro-[1,4]oxazepino[2,3-c]quinolin-6(7H)-one]"

# Second part, the compound before the results:
row,SMILES,HTRF avg pIC50 (1 nM)
1,"C[C@H]1COC(=O)c2c(c3cc(Nc4nc(N5CCC(C(=O)N(C)C)CC5)ncc4Cl)ccc3n(C)c2=O)N1 [Example 8d, (S)-1-(5-chloro-4-((2,7-dimethyl-5,6-dioxo-1,2,3,5,6,7-hexahydro-[1,4]oxazepino[6,5-c]quinolin-10-yl)amino)pyrimidin-2-yl)-N,N-dimethylpiperidine-4-carboxamide]",6.78
2,"C[C@H]1COC(=O)c2c(c3cc(Nc4nc(N5CCC6(CCCN(C)C6=O)CC5)ncc4Cl)ccc3n(C)c2=O)N1 [Example 8e, (S)-10-((5-chloro-2-(2-methyl-1-oxo-2,9-diazaspiro[5.5]undecan-9-yl)pyrimidin-4-yl)amino)-2,7-dimethyl-2,3-dihydro-[1,4]oxazepino[6,5-c]quinoline-5,6(1H,7H)-dione]",6.69
3,"C[C@H]1COC(=O)c2c(c3cc(Nc4nc(N5CC6CCC(C6)C5)ncc4Cl)ccc3n(C)c2=O)N1 [Example 8h, (2S)-10-((2-(3-azabicyclo[3.2.1]octan-3-yl)-5-chloropyrimidin-4-yl)amino)-2,7-dimethyl-2,3-dihydro-[1,4]oxazepino[6,5-c]quinoline-5,6(1H,7H)-dione]",6.47
4,"C[C@H]1COC(=O)c2c(c3cc(Nc4nc(N5CCCC5=O)ncc4Cl)ccc3n(C)c2=O)N1 [Example 8i, (S)-10-((5-chloro-2-(2-oxopyrrolidin-1-yl)pyrimidin-4-yl)amino)-2,7-dimethyl-2,3-dihydro-[1,4]oxazepino[6,5-c]quinoline-5,6(1H,7H)-dione]",6.23
5,"Cn1c(=O)c2c(c3cc(Nc4nc(N5C6CCCC5CC6)ncc4Cl)ccc31)N[C@@H](C1CC1)COC2=O [Example 8j, (2S)-10-((2-(8-azabicyclo[3.2.1]octan-8-yl)-5-chloropyrimidin-4-yl)amino)-2-cyclopropyl-7-methyl-2,3-dihydro-[1,4]oxazepino[6,5-c]quinoline-5,6(1H,7H)-dione]",6.65
6,"C[C@@H]1CN(c2ncc(Cl)c(Nc3ccc4c(c3)c3c(c(=O)n4C)C(=O)OC[C@H](C4CC4)N3)n2)C[C@H](C)C1(F)F [Example 8k, (S)-10-((5-chloro-2-((3S,5R)-4,4-difluoro-3,5-dimethylpiperidin-1-yl)pyrimidin-4-yl)amino)-2-cyclopropyl-7-methyl-2,3-dihydro-[1,4]oxazepino[6,5-c]quinoline-5,6(1H,7H)-dione]",6.38
7,"C[C@@H]1C[C@H](C)CN(c2ncc(Cl)c(Nc3ccc4c(c3)c3c(c(=O)n4C)C(=O)OC[C@H](C4CC4)N3)n2)C1 [Example 8l, (S)-10-((5-chloro-2-((3R,5S)-3,5-dimethylpiperidin-1-yl)pyrimidin-4-yl)amino)-2-cyclopropyl-7-methyl-2,3-dihydro-[1,4]oxazepino[6,5-c]quinoline-5,6(1H,7H)-dione]",6.36
8,"C[C@@H]1CN(c2ncc(Cl)c(Nc3ccc4c(c3)c3c(c(=O)n4C)C(=O)OC[C@H](C4CC4)N3)n2)C[C@H](C)O1 [Example 8n, (S)-10-((5-chloro-2-((2S,6R)-2,6-dimethylmorpholino)pyrimidin-4-yl)amino)-2-cyclopropyl-7-methyl-2,3-dihydro-[1,4]oxazepino[6,5-c]quinoline-5,6(1H,7H)-dione]",6.19
9,"C[C@H]1COCc2c(c3cc(Nc4ccnc(Cl)c4C#N)ccc3n(C)c2=O)N1 [Example 9a, (S)-2-chloro-4-((2,7-dimethyl-6-oxo-1,2,3,5,6,7-hexahydro-[1,4]oxazepino[6,5-c]quinolin-10-yl)amino)nicotinonitrile]",5.66
10,"CC1CCc2c(c3cc(Nc4ccnc(Cl)c4C#N)ccc3n(C)c2=O)N1 (stereo not drawn) [Example 10a, 2-chloro-4-((2,6-dimethyl-5-oxo-1,2,3,4,5,6-hexahydrobenzo[h][1,6]-naphthyridin-9-yl)amino)nicotinonitrile]",5.84

# Same assay, conditions: HTRF avg pIC50 (1 nM), 1 nM Trx-6×His-BCL6, 300 nM BCOR-AF633 peptide, 2 hours incubation
row,SMILES,IC50 [nM]
1,"CC1Nc2c(c(=O)n(C)c3ccc(Nc4ccnc(Cl)c4C#N)cc23)C(=O)OC1C (stereo not drawn) [Example 6d, 2-chloro-4-((2,3,7-trimethyl-5,6-dioxo-1,2,3,5,6,7-hexahydro-[1,4]oxazepino[6,5-c]quinolin-10-yl)amino)nicotinonitrile]",214
